Test results as given in patent publication US4526989A, “1,4-Bis (substituted-amino)-5,8-dihydroxy-anthraquinones and leuco bases thereof” (priority 1979, dated 1985).
Like-named read-outs stand apart in the source and are kept apart here.

Experiments:
[1] = test system: lymphocytic leukemia P388; experiment: Lymphocytic leukemia P388 test (intraperitoneal administration); type: in vivo, DBA/2 mice
Description: The animals used are DBA/2 mice all of one sex, weighing a minimum of 17 g. and all within a 3 gram weight range. There are 5 or 6 animals per test group. The tumor transplant is by intraperitoneal injection of 0.1 ml. of dilute ascitic fluid containing 10^6 cells of lymphocytic leukemia P388. The test compounds are administered intraperitoneally on days one, 5 and 9 (relative to tumor inoculation) at various doses. The animals are weighed and survivors are recorded on a regular basis for 30 days. The median survival time and the ratio of survival time for treated (T)/control (C) animals are calculated.

melanotic melanoma B16 = experiment: Melanotic Melanoma B16 test; type: in vivo, C57BC/6 mice
Description: The animals used are C57BC/6 mice, all of the same sex, weighing a minimum of 17 g. and all within a 3-g. weight range. There are normally 10 animals per test group. A one-gram portion of melanotic melanoma B16 tumor is homogenized in 10 ml. of cold balanced salt solution and a 0.5-ml. aliquot of the homogenate is implanted intraperitoneally into each of the test mice. The test compounds are administered intraperitoneally on days one through 9 (relative to tumor inoculation) at various doses. The animals are weighed and survivors are recorded on a regular basis for 60 days. The median survival time and the ratio of survival time for treated (T)/control (C) animals are calculated. […] The criterion for efficacy is T/C×100≥125%.

[2] = 25 mg./kg. i.p., days 1, 5 and 9
[3] = 50 mg./kg. i.p., days 1, 5 and 9
[4] = 100 mg./kg. i.p., days 1, 5 and 9
[5] = Mus musculus, P388, ip, 25 mg./kg. i.p., days 1, 5 and 9, efficacy ≥125%, read-out: T/C × 100
[6] = Mus musculus, P388, ip, 50 mg./kg. i.p., days 1, 5 and 9, efficacy ≥125%, read-out: T/C × 100
[7] = Mus musculus, P388, ip, 100 mg./kg. i.p., days 1, 5 and 9, efficacy ≥125%, read-out: T/C × 100
[8] = 6 mg./kg. i.p., days 1 through 9
[9] = 12 mg./kg. i.p., days 1 through 9
[10] = 25 mg./kg. i.p., days 1 through 9
[11] = Mus musculus, ip, 6 mg./kg. i.p., days 1 through 9, efficacy ≥125%, read-out: T/C × 100
[12] = Mus musculus, ip, 12 mg./kg. i.p., days 1 through 9, efficacy ≥125%, read-out: T/C × 100
[13] = Mus musculus, ip, 25 mg./kg. i.p., days 1 through 9, efficacy ≥125%, read-out: T/C × 100
[14] = Mus musculus, P388, ip, read-out: T/C × 100

O=C1c2c(O)ccc(O)c2C(=O)c2c(NCCN3CCCC3)ccc(NCCN3CCCC3)c21 [1,4-Bis[2-(1-pyrrolidinyl)ethylamino]-5,8-dihydroxyanthraquinone]
Median Survival Time ([1]; 12 mg./kg. i.p., days 1, 5 and 9): 18.0 days
Median Survival Time [1, 2]: 21.0 days
Median Survival Time [1, 3]: 23.0 days
Median Survival Time [1, 4]: 24.0 days
response vs control in vivo at 12 mg/kg ([1]; Mus musculus, P388, ip, 12 mg./kg. i.p., days 1, 5 and 9, efficacy ≥125%, read-out: T/C × 100): 164%
response vs control in vivo at 25 mg/kg [1, 5]: 191%
response vs control in vivo at 50 mg/kg [1, 6]: 209%
response vs control in vivo at 100 mg/kg [1, 7]: 218%
Median Survival Time (melanotic melanoma B16; [8]): 22.0 days
Median Survival Time (melanotic melanoma B16; [9]): 22.0 days
Median Survival Time (melanotic melanoma B16; [10]): 24.5 days
response vs control in vivo at 6 mg/kg (melanotic melanoma B16; [11]): 137%
response vs control in vivo at 12 mg/kg (melanotic melanoma B16; [12]): 137%
response vs control in vivo at 25 mg/kg (melanotic melanoma B16; [13]): 153%

NCCNCCNc1ccc(NCCNCCN)c2c1C(=O)c1c(O)ccc(O)c1C2=O [1,4-Bis[2-(2-aminoethylamino)ethylamino]-5,8-dihydroxyanthraquinone]
Median Survival Time [1, 2]: 13.0 days
Median Survival Time [1, 3]: 14.0 days
Median Survival Time [1, 4]: 16.0 days
Median Survival Time ([1]; 200 mg./kg. i.p., days 1, 5 and 9): 17.0 days
response vs control in vivo at 25 mg/kg [1, 5]: 124%
response vs control in vivo at 50 mg/kg [1, 6]: 133%
response vs control in vivo at 100 mg/kg [1, 7]: 152%
response vs control in vivo at 200 mg/kg ([1]; Mus musculus, P388, ip, 200 mg./kg. i.p., days 1, 5 and 9, efficacy ≥125%, read-out: T/C × 100): 162%
Median Survival Time (melanotic melanoma B16; [8]): 20.0 days
Median Survival Time (melanotic melanoma B16; [9]): 22.0 days
Median Survival Time (melanotic melanoma B16; [10]): 22.5 days
Median Survival Time (melanotic melanoma B16; 50 mg./kg. i.p., days 1 through 9): 24.0 days
response vs control in vivo at 6 mg/kg (melanotic melanoma B16; [11]): 125%
response vs control in vivo at 12 mg/kg (melanotic melanoma B16; [12]): 138%
response vs control in vivo at 25 mg/kg (melanotic melanoma B16; [13]): 141%
response vs control in vivo at 50 mg/kg (melanotic melanoma B16; Mus musculus, ip, 50 mg./kg. i.p., days 1 through 9, efficacy ≥125%, read-out: T/C × 100): 150%

Cl.Cl.O=C1c2c(O)ccc(O)c2C(=O)c2c(NCCNCCO)ccc(NCCNCCO)c21 [1,4-Bis[2-(2-hydroxyethylamino)ethylamino]-5,8-dihydroxyanthraquinone Dihydrochloride]
Median Survival Time ([1]; 0.04 mg./kg. i.p., days 1, 5 and 9): 20.0 days
Median Survival Time ([1]; 0.09 mg./kg. i.p., days 1, 5 and 9): 21.0 days
Median Survival Time ([1]; 0.19 mg./kg. i.p., days 1, 5 and 9): 25.0 days
Median Survival Time ([1]; 0.39 mg./kg. i.p., days 1, 5 and 9): 27.0 days
Median Survival Time ([1]; 0.78 mg./kg. i.p., days 1, 5 and 9): > 29.0 days
Median Survival Time ([1]; 1.5 mg./kg. i.p., days 1, 5 and 9): > 29.0 days
Median Survival Time ([1]; 3.1 mg./kg. i.p., days 1, 5 and 9): 22.0 days
Median Survival Time ([1]; 6.2 mg./kg. i.p., days 1, 5 and 9): 20.0 days
Median Survival Time ([1]; 12.5 mg./kg. i.p., days 1, 5 and 9): 13.0 days
response vs control in vivo at 0.04 mg/kg [1, 14]: 200%
response vs control in vivo at 0.19 mg/kg [1, 14]: 250%
response vs control in vivo at 6.2 mg/kg [1, 14]: 200%
response vs control in vivo at 0.09 mg/kg ([1]; Mus musculus, P388, ip, 0.09 mg./kg. i.p., days 1, 5 and 9, efficacy ≥125%, read-out: T/C × 100): 210%
response vs control in vivo at 0.39 mg/kg ([1]; Mus musculus, P388, ip, 0.39 mg./kg. i.p., days 1, 5 and 9, efficacy ≥125%, read-out: T/C × 100): 270%
response vs control in vivo at 0.78 mg/kg ([1]; Mus musculus, P388, ip, 0.78 mg./kg. i.p., days 1, 5 and 9, efficacy ≥125%, read-out: T/C × 100): > 290%
response vs control in vivo at 1.5 mg/kg ([1]; Mus musculus, P388, ip, 1.5 mg./kg. i.p., days 1, 5 and 9, efficacy ≥125%, read-out: T/C × 100): > 290%
response vs control in vivo at 3.1 mg/kg ([1]; Mus musculus, P388, ip, 3.1 mg./kg. i.p., days 1, 5 and 9, efficacy ≥125%, read-out: T/C × 100): 220%
response vs control in vivo at 12.5 mg/kg ([1]; Mus musculus, P388, ip, 12.5 mg./kg. i.p., days 1, 5 and 9, efficacy ≥125%, read-out: T/C × 100): 130%
Median Survival Time (melanotic melanoma B16; 0.3 mg./kg. i.p., days 1 through 9): 34.0 days
Median Survival Time (melanotic melanoma B16; 0.7 mg./kg. i.p., days 1 through 9): > 34.0 days
Median Survival Time (melanotic melanoma B16; 1.5 mg./kg. i.p., days 1 through 9): > 34.0 days
Median Survival Time (melanotic melanoma B16; 3 mg./kg. i.p., days 1 through 9): > 28.5 days
Median Survival Time (melanotic melanoma B16; [8]): 15.0 days
Median Survival Time (melanotic melanoma B16; [9]): 11.0 days
response vs control in vivo at 6 mg/kg (melanotic melanoma B16; Mus musculus, ip, read-out: T/C × 100): 100%
response vs control in vivo at 0.3 mg/kg (melanotic melanoma B16; Mus musculus, ip, 0.3 mg./kg. i.p., days 1 through 9, efficacy ≥125%, read-out: T/C × 100): 227%
response vs control in vivo at 0.7 mg/kg (melanotic melanoma B16; Mus musculus, ip, 0.7 mg./kg. i.p., days 1 through 9, efficacy ≥125%, read-out: T/C × 100): > 227%
response vs control in vivo at 1.5 mg/kg (melanotic melanoma B16; Mus musculus, ip, 1.5 mg./kg. i.p., days 1 through 9, efficacy ≥125%, read-out: T/C × 100): > 227%
response vs control in vivo at 3 mg/kg (melanotic melanoma B16; Mus musculus, ip, 3 mg./kg. i.p., days 1 through 9, efficacy ≥125%, read-out: T/C × 100): > 190%
response vs control in vivo at 12 mg/kg (melanotic melanoma B16; [12]): 73%
